In the OPERA property sets (Mansouri et al. 2018):

Conditions: not given

| Compound | boiling point [°C] | melting point [°C] | log10 vapour pressure (mmHg) | log10 Koc (L/kg) | log10 Henry constant (atm·m³/mol) | ready biodegradability |
| --- | --- | --- | --- | --- | --- | --- |
| C=CC(C)(C)C(=O)O | 185 | -6 |  |  |  |  |
| NNc1ccc(Br)cc1 |  | 108 |  |  |  |  |
| CCC(C(C)C)C(C)C | 137 | -122 | 1 |  |  |  |
| O=[N+]([O-])c1cc[n+]([O-])c2ccccc12 |  | 154 |  |  |  |  |
| CCCc1ccc(N)cc1 | 225 |  |  |  |  |  |
| C/C=C/CCC | 66.5 | -98 |  |  |  |  |
| Cc1cc(O)c2c(c1)C(=O)c1cccc(O)c1C2=O |  | 196 |  |  |  |  |
| CC(C)(Oc1ccc(Cl)cc1)C(=O)OCc1cccnc1 |  | 48.5 |  |  |  |  |
| CCCCCCCCCCCCCCCc1cccc(O)c1O |  | 59.5 |  |  |  |  |
| CC(Cl)(CCl)CCl | 162 |  |  |  |  |  |
| OCCC1CCCCN1 (configuration not stated) | 202 | 69 |  |  |  |  |
| NC(=O)c1ccccc1N | 300 |  |  |  |  |  |
| COc1ccc([C@@H]2Sc3ccccc3N(CCN(C)C)C(=O)[C@@H]2OC(C)=O)cc1 |  | 210 |  |  |  |  |
| CCCCCCCCCCCCCC#N |  | 19 |  |  |  |  |
| OCc1cc(O)ccc1O |  | 100 |  |  |  |  |
| CC(C)OC(=O)C1(S(=O)(=O)c2ccc([N+](=O)[O-])cc2)CCCCCC1 |  | 83.5 |  |  |  |  |
| O=C/C(Cl)=C(/Cl)C(=O)O |  | 127 |  |  |  |  |
| COc1ccc(C=O)cc1O |  | 114 |  |  |  |  |
| Cc1cc(=O)[nH]c(=S)[nH]1 |  |  |  | 2.14 |  |  |
| N#Cc1c(F)c(F)c(F)c(F)c1C#N |  | 83 |  |  |  |  |
| CCC(CC)C(C)(C)CC | 163 |  |  |  |  |  |
| C[Si]1(C)O[Si](C)(C)O[Si](C)(C)O1 | 134 | 64.5 | 0.548 |  |  |  |
| O=C1OC(C(O)CO)C(O)=C1O (configuration not stated) |  | 168 |  |  |  |  |
| CCc1ccc(N)cc1 | 218 | -4.8 | -0.844 |  |  |  |
| FC1(F)C(F)(F)C(F)(F)C(F)(F)C(F)(F)C1(F)F | 50.6 |  | 2.23 |  |  |  |
| NC(=O)c1cccc([N+](=O)[O-])c1 | 312 | 143 |  | 1.95 |  |  |

| Compound | boiling point [°C] | melting point [°C] | log10 vapour pressure (mmHg) | log10 Koc (L/kg) | log10 Henry constant (atm·m³/mol) | ready biodegradability |
| --- | --- | --- | --- | --- | --- | --- |
| ClCc1ccccc1CCl | 240 | 55 |  |  |  |  |
| CCCC(C)COC(C)=O (configuration not stated) | 163 |  |  |  |  |  |
| CC#CCO | 148 | -2.2 |  |  |  |  |
| C[C@]12CC[C@@H](O)C[C@@H]1CC[C@@H]1[C@@H]2[C@H](O)C[C@]2(C)C(=O)CC[C@@H]12 |  | 235 |  |  |  |  |
| CCS(=O)(=O)C(C)(C)S(=O)(=O)CC | 300 | 126 |  |  |  |  |
| c1ccc(CN(Cc2ccccc2)Cc2ccccc2)cc1 | 385 | 91.5 |  |  |  |  |
| CCCc1ccc(O)cc1 | 233 | 22 | -1.43 |  | -5.94 |  |
| CC(C)(C#N)Nc1nc(Cl)nc(NC2CC2)n1 |  | 170 |  |  |  |  |
| Cc1cc(OC(=O)N(C)C)n(C(C)C)n1 |  |  | -3 |  |  |  |
| COc1ccc(C=O)c2ccccc12 |  | 34.8 |  |  |  |  |
| CC=CCCC |  |  |  |  |  | not readily biodegradable |
| Nc1ccccc1C(=O)O |  | 145 |  |  |  | readily biodegradable |
| CCCOC(=O)CC(C)C | 156 |  | 0.413 |  |  |  |
| CC(=O)N(C(C)=O)c1ccc(/N=N/c2ccccc2C)cc1C |  | 75 |  |  |  |  |
| CCCCC(C=O)CC (configuration not stated) | 163 |  | 0.255 |  |  |  |
| O=C(O)Cc1cn(-c2ccccc2)nc1-c1ccc(Cl)cc1 |  | 150 |  |  |  |  |
| [N-]=[N+]=CC(=O)OC[C@H](N)C(=O)O |  | 154 |  |  |  |  |
| CCCCCCCCOc1ccc(C(=O)c2ccccc2)c(O)c1 |  | 48.5 |  |  |  | not readily biodegradable |
| Clc1ccc(-c2c(Cl)cc(Cl)c(Cl)c2Cl)c(Cl)c1 |  | 73 |  |  |  |  |
| O=C1CN=C(c2ccccc2)c2cc(Cl)ccc2N1CC1CC1 |  | 146 |  |  |  |  |
| CCCC(C1CCCCC1)C1CCCCC1 | 293 | -10.5 |  |  |  |  |
| NC1=NCCS1 |  | 85.3 |  |  |  |  |
| CCc1cc2cc(OC)c(OC)cc2c(Cc2ccccc2)n1 |  | 78.5 |  |  |  |  |
| CC(C)(C)CCCl | 115 |  |  |  |  |  |
| COc1c(Cl)c(Cl)c(Cl)c(Cl)c1Cl |  | 108 |  |  |  |  |
| Cc1cccc(C)c1NC1=NCCCS1 |  | 140 |  |  |  |  |

| Compound | boiling point [°C] | melting point [°C] | log10 vapour pressure (mmHg) | log10 Koc (L/kg) | log10 Henry constant (atm·m³/mol) | ready biodegradability |
| --- | --- | --- | --- | --- | --- | --- |
| CCOP(=S)(OCC)SCS(=O)C(C)(C)C (configuration not stated) |  |  |  | 2.18 |  |  |
| COc1cccc(C=O)c1 | 231 |  |  |  |  | readily biodegradable |
| CN(C(=O)COc1nc2ccccc2s1)c1ccccc1 |  | 135 | -8.32 |  |  |  |
| Clc1cc(Cl)c2c(c1)oc1cc(Cl)cc(Cl)c12 |  | 207 | -7.73 |  |  |  |
| CCOC(=O)C(Br)CC (configuration not stated) | 177 |  |  |  |  |  |
| COc1ccc(CCNCC(O)COc2cccc(C)c2)cc1OC (configuration not stated) |  | 138 |  |  |  |  |
| Brc1ccc(Br)s1 | 210 | -6 |  |  |  |  |
| ClC(I)I |  | -4 |  |  |  |  |
| O=C1C(Br)=CC(=NCl)C=C1Br |  | 83 |  |  |  |  |
| CC(CC1CCCCC1)CC1CCCCC1 | 295 | 0.6 |  |  |  |  |
| CC1=C(/C=C/C(C)=C/C=C/C(C)=C/C=C/C=C(C)/C=C/C=C(C)/C=C/C2=C(C)C[C@H](O)CC2(C)C)C(C)(C)CCC1 |  | 160 |  |  |  |  |
| O=C(O)C=Cc1ccc(Br)cc1 |  | 263 |  |  |  |  |
| CCCCCCC(O)CCCCCCCCCCC(=O)O (configuration not stated) |  |  |  |  |  | readily biodegradable |
| C[Si](C)(Cl)CBr | 131 |  |  |  |  |  |
| CCCCI | 131 | -103 | 1.14 |  |  |  |
| COc1ccc(Br)cc1OC | 254 |  |  |  |  |  |
| c1ccc2c(c1)Cc1ccccc1S2 | 341 | 128 |  |  |  |  |
| C=CCOC(=O)OCCOCCOC(=O)OCC=C |  | -4 |  |  |  | readily biodegradable |
| CC(=O)Nc1cccc([N+](=O)[O-])c1 |  | 155 |  | 1.94 |  |  |
| COCC(=O)N(c1c(C)cccc1C)N1CCOC1=O |  | 104 | -7.61 |  |  |  |
| Oc1ccc2c(O)c3ccccc3cc2c1O |  | 208 |  |  |  |  |
| O=Cc1ccc(Oc2ccccc2)cc1 |  | 24.5 |  |  |  |  |
| O=S(=O)(Cl)c1ccc(Br)cc1 |  | 76 |  |  |  |  |
| CC(Br)C(Br)Br (configuration not stated) | 200 |  |  |  |  |  |
| CCCCC(=O)CC | 147 | -39 | 0.415 |  |  |  |
| c1ccc(N2CCOCC2)cc1 |  | 52.5 |  |  |  |  |

| Compound | boiling point [°C] | melting point [°C] | log10 vapour pressure (mmHg) | log10 Koc (L/kg) | log10 Henry constant (atm·m³/mol) | ready biodegradability |
| --- | --- | --- | --- | --- | --- | --- |
| Cc1ccc(S(=O)(=O)Cl)cc1 |  | 71 |  |  |  | readily biodegradable |
| CCOC(=O)Nc1ccccc1 | 238 | 53 |  | 1.82 |  |  |
| COC(=O)CBr | 132 |  |  |  |  |  |
| CCCOC(=O)C(O)C(O)C(=O)OCCC (configuration not stated) | 303 |  |  |  |  |  |
| COc1cccc(C(C)=O)c1 | 240 |  |  |  |  |  |
| O=C(O)C1=CCCCC1 | 241 | 38 |  |  |  |  |
| CC(C)(C)C(=O)C(Oc1ccc(Cl)cc1)n1cncn1 (configuration not stated) |  | 82 | -7.82 | 2.71 |  |  |
| CC(=O)c1ccc(F)cc1 | 196 |  |  |  |  |  |
| N#CC(F)(F)F | -68.8 |  |  |  |  |  |
| Cc1ccc2c(c1)C(=O)c1ccccc1C2=O |  | 177 |  |  |  |  |
| CC(C)(C)C(=O)c1ccccc1 | 220 |  |  |  |  |  |
| c1ccc(Nc2ccccn2)nc1 | 308 | 90.5 |  |  |  |  |
| Oc1c(Br)cccc1Br | 255 | 56.5 |  |  |  |  |
| Oc1cc(Cl)c(Br)cc1Cl |  |  |  |  |  | not readily biodegradable |
| CCCCCCC(C)N (configuration not stated) | 165 |  |  |  |  |  |
| COc1ccc(Cc2cnc(N)nc2N)cc1OC |  | 233 |  |  |  |  |
| OC[C@@H](O)[C@H]1O[C@@H]2O[C@H](C(Cl)(Cl)Cl)O[C@@H]2[C@H]1O |  | 183 |  |  |  |  |
| COc1cc2c(c3oc(=O)c4c(c13)CCC4=O)[C@@H]1CCO[C@@H]1O2 |  | 288 |  |  |  |  |
| CON | 49.5 |  | 2.46 |  |  |  |
| CC(=O)OC1CCCCC1C (configuration not stated) |  |  |  |  |  | readily biodegradable |
| O=C(O)CCS |  | 18 | -1.3 |  |  |  |
| C=Cc1ccc(C)cc1C |  | -64 |  |  |  |  |
| CC(=O)[C@@]1(O)CC[C@H]2[C@@H]3C[C@H](C)C4=CC(=O)CC[C@]4(C)[C@H]3CC[C@@]21C |  | 214 |  |  |  |  |

Same assay, conditions: fish

| Compound | log10 BCF | log10 biotransformation half-life (days) |
| --- | --- | --- |
| CCCCCCCCOc1ccc(C(=O)c2ccccc2)c(O)c1 | 1.9 |  |
| COc1c(Cl)c(Cl)c(Cl)c(Cl)c1Cl | 4.16 | 2.67 |
| Clc1cc(Cl)c(Cl)c(-c2c(Cl)c(Cl)c(Cl)c(Cl)c2Cl)c1Cl |  | 2.63 |
